Measurements published in patent US9290740B2, “Use of basic fibroblast growth factor in the de-differentiation of animal connective tissue cells” (Worcester Polytechnic Institute, priority 2008, dated 2016).
“And” between values parts separate entries of the source, which are not always exact repeats. Equal values may be shown once.

Tested on: adult human dermal fibroblasts (CRL-2352)
Test: Effect of FGF2 and oxygen level on proliferation and in vitro lifespan (population doublings to senescence)
Assay type: cell-based
Experimental: Adult human fibroblasts (cell line CRL-2352) derived from connective tissue isolated from tissue derived from a below knee amputation of a person were received from American type Tissue Culture Collection (ATCC) (Manassas, Va.) as cryopreserved vials and were stored in liquid nitrogen until use. Cells were thawed at 37 C and added dropwise to 10 ml of basal culture medium (CM-1A, 45% DMEM without L-gln or phenol red (MediaTech, Manassas, Va.) with 4 mM L-Gln (MediaTech), 45% Hams F12 Medium (MediaTech), and 10% Fetalclone III (Hyclone, Logan, Utah)). The cell suspension was centrifuged at 700×g for 5 min, the medium aspirated and the pellet resuspended in fresh CM1A culture medium. Cells were seeded at a density of 0.5×106 in 10 ml of medium in T75 tissue culture flasks (BD Falcon). Cultures were carried out in a 37 C incubator in a humidified environment of 5% CO2, 5% O2, 90% N2. Cells were passaged at routine intervals at approximately 70-90% confluence using Trypsin-EDTA solution (MediaTech) diluted 1:5 in DPBS without Ca2+/Mg2+ (MediaTech). At each passage, cells were counted using a Levy Counting chamber (Hausser Scientific) and the number of population doublings calculated as log 2. For comparative studies, human recombinant FGF2 (either Invitrogen or Chemicon) was supplemented into CM1A at 4 ng/ml (medium designated CM2A) from a 100 μg/ml stock solution in DPBS (MediaTech).
Cells were passaged continuously at either 3 or 4 day intervals without interruption until in vitro senescence was reached. Two replicate T25 vessels of cells for each treatment (with or without FGF2) were seeded at each passage with 100,000 cells per vessel. The average number of population doublings (PDs) was calculated at each passage and cumulative PDs plotted versus time (days) in culture (FIG. 1).
Cells were thawed and seeded at equal density into T25 cell culture flasks (BD Falcon) and cultured at 37° C., 5% CO2, balance air (high O2); and 37° C., 5% CO2, 5% O2, 90% N2 (low O2). For each oxygen tension level, cells were also cultured with and without FGF2 (4 ng/ml). Cells were passaged at 3 or 4 day intervals, counted and 100,000 cells re-seeded at each passage. The number of population doublings at each passage was determined and cumulative population doublings compared between low and high O2 treatment groups. In addition, at day 28 of culture, FGF2 was removed from a population of cells and the culture continued to monitor the long term effect of previous culture with FGF2.
Primary adult human dermal fibroblasts from connective tissue isolated from tissue biopsy from a below knee amputation of a person were received from ATCC(CRL-2352) at passage 2. Cells were cultured in medium consisting of DMEM:Ham's F12 ([…], MediaTech) with 10% Fetalclone III (Hyclone, Logan, Utah). The DMEM (without L-Gln or phenol red) was supplemented with 4 mM fresh L-Gln (MediaTech) prior to use. Cultures were carried out in a 37° C. incubator in a humidified environment of 5% CO2, 5% O2, and 90% N2. The number of population doublings calculated as log2. Cells were seeded at 100,000 cells per T25 flask at each passage (Falcon). […] Human muscle derived fibroblasts were derived from surplus muscle tissue from the calf flexor muscle used for a surgical knee repair in an adult. Tissue was rinsed in Leibowitz L-15 medium (MediaTech) containing 10 μg/ml gentamicin (Invitrogen) and 2.5 μg/ml fungizone (Hyclone) and minced using a sterile scalpel and digested with 1800 units/ml collagenase Type IV for 1 hour at 37° C. Cell lines were established by culture at 5% O2 from the beginning and working stocks cryopreserved at passage 2.

Substance: FGF2: human recombinant FGF2 (Invitrogen, Chemicon or Protide), basic fibroblast growth factor
- population doublings at senescence, low O2 with FGF2 (FGF2 4 ng/ml, 5% O2): 65 PDs and 70 PDs
- proliferation rate versus cells without FGF2 (FGF2 4 ng/ml, 5% O2): proliferated more rapidly
- additional population doublings achieved by addition of FGF2 (on average) (FGF2 4 ng/ml, 5% O2, until replicative senescence): 19 population doublings
- population doublings at senescence, atmospheric oxygen with FGF2 (FGF2 4 ng/ml, atmospheric oxygen): 49 PDs and 50 PDs
- cell morphology (FGF2, 5% O2): smaller cells with a more spindle shape
- karyotype (FGF2/low oxygen-treated fibroblasts): maintained normal karyotype
- increase in longevity / cell passage over primary cells cultured without these conditions (FGF2 and low oxygen conditions): two fold increase
- number of passages observed (FGF2 and low oxygen conditions, primary cells typically about 20 to 30): 70 times
